# Measured values: paper PMC10384408, “Anticancer Tungstenocenes with a Diverse Set of (O,O–), (O,S–) and (O,N–) Chelates—A Detailed Biological Study Using an Improved Evaluation via 3D Spheroid Models” (Pharmaceutics, 2023)
# Like-named read-outs stand apart in the source and are kept apart here.
# Assays:
# [1] = test system: A549 (non-small cell lung carcinoma) cells; settings: MTT assay, 96 h; cited from earlier work
# [2] = test system: SW480 (colon carcinoma) cells; settings: MTT assay, 96 h; cited from earlier work
# [3] = test system: CH1/PA-1 (ovarian teratocarcinoma) cells; settings: MTT assay, 96 h; cited from earlier work
# [4] = test system: IMR-90 human lung fibroblasts; assay: MTT cytotoxicity assay, IMR-90 fibroblasts; type: cell-based; settings: exposure time 96 h, mean ± SD
# Procedure: (§1) CH1/PA-1 (ovarian teratocarcinoma), SW480 (colon carcinoma) and A549 (non-small cell lung cancer) cells were maintained as described in the reference. IMR-90 human fetal lung fibroblasts (from the European Collection of Authenticated Cell Cultures, Porton Down, Salisbury, UK) were cultured in Stable Cell^TM DMEM/F12 supplemented with 0.01 mg/mL human recombinant insulin (both purchased from Sigma-Aldrich) and 10% fetal bovine serum (FBS, BioWest, Nuaillé, France). Human colon carcinoma cell lines HCT116 and HT29 (both kindly provided by the Institute of Cancer Research, Department of Medicine I, Medical University of Vienna, Austria) were cultured in McCoy’s 5a medium supplemented with 4 mM L-glutamine (both purchased from Sigma-Aldrich) and 10% FBS. MCF-7 human breast adenocarcinoma cells (kindly provided by M. Ogris, Department of Pharmaceutical Sciences, University of Vienna, Austria) were maintained in DMEM (high glucose) supplemented with 4 mM L-glutamine, 0.1 mg/mL human insulin (all purchased from Sigma-Aldrich) and 10% FBS. All cell lines were grown as monolayers in 75 cm^2 culture flasks (CytoOne, Starlab, Hamburg, Germany) at 37 °C in a humidified atmosphere containing 5% CO2.
# (§2) Exponentially growing cells were plated into 96-well microculture plates (CytoOne, tissue culture treated, Starlab, Hamburg, Germany) in densities of 1 × 10^3 CH1/PA-1, 2 × 10^3 SW480, 3 × 10^3 A549 and 7 × 10^3 IMR-90 cells per well (each in 100 µL). After a 24 h preincubation, drugs were added in serial dilution to give a final volume of 200 µL/well and exposed for 96 h. At the end of the exposure, the drug solutions were replaced by 100 µL RPMI 1640/MTT mixture (7:1 ratio). MTT (3-(4,5-dimethylthiazol-2-yl)-2,5-diphenyl-2H-tetrazolium bromide), (Acros Organics, Geel, Belgium) solution was prepared in phosphate-buffered saline (5 mg/mL) and mixed with RPMI1640 medium supplemented with 4 mM L-glutamine (both from Sigma-Aldrich) and 10% FBS. After 4 h incubation, the formazan crystals were solubilized in 150 µL of DMSO per well. Absorbance was measured at 550 nm (and at 690 nm as a reference) with a microplate reader (ELx808, BioTek, Winoosky, VT, USA) and Gen5^TM 3.08 software (BioTek). The 50% inhibitory concentrations (IC50) relative to untreated controls were interpolated from concentration-effect curves. At least three biologically and technically independent experiments were performed.
# [5] = test system: A549 (non-small cell lung carcinoma) cells; assay: MTT cytotoxicity assay, A549 monolayer; type: cell-based, human; settings: for activity in A549: 96 h; for IC50: exposure time 96 h, mean ± SD
# Procedure: as §1, §2
# [6] = Cyclic voltammetry in MeCN (W(IV) to W(V)); type: physicochemical; settings: vs. NHE, scan rate 200 mV/s
# Procedure: NMR spectra were recorded with a Bruker FT-NMR Avance III^TM 500 MHz spectrometer at 500.10 (^1H), and 125.75 MHz (^13C) using DMSO–d6. 2D-NMR measurements were recorded utilizing standard pulse programs COSY, HSQC and HMBC. The Microanalytical Laboratory of the University of Vienna performed the elemental analyses with a Eurovector EA 3000(2009) equipped with a high temperature pyrolysis furnace (HT, Hekatech, Germany, 2009). Elemental analyses’ samples were weighed (weights from 1–3 mg were used) on a Sartorius SEC 2 ultra-micro balance with ±0.1 µg resolution. Two NIST-certified reference materials were used for calibration: sulfanilamide (C6H8N2O2S) and BBOT (2,5-bis-(5-tert-butyl-2-benzoxazol-2-yl)-thiophenone, C26H26N2O2S). The limit of quantification (LOQ) was 0.05 w% for C, H, N and 0.02 w% for S. For samples without N and/or S, the content of these elements was determined and verified to be below the LOQ. X-ray diffraction analyses were carried out on a Bruker X8 APEX II CCD diffractometer at 100 K. ESI-MS were recorded on a Bruker AmaZon SL ion trap mass spectrometer (Bruker Daltonics GmbH). Data were obtained and processed with Compass 1.3 and Data Analysis 4.0 (Bruker Daltonics GmbH). Infrared spectra were attained on a Bruker Vertex 70 FT-IR-spectrometer with an ATR-unit (attenuated total reflection unit) in the range of 4000–600 cm^−1. Intensities of the reported bands are described with w for weak, m for medium and s for strong; broad signals are additionally specified with the letter b in front of these abbreviations. Cyclic voltammograms (CVs) were measured in a three-electrode cell using 2 mm diameter glassy carbon disk working electrode, a platinum auxiliary electrode and an Ag|Ag^+ reference electrode containing 0.1 M AgNO3. Measurements were carried out at room temperature using an EG&G PARC potentiostat/galvanostat 273A. The solutions were deoxygenized by purging a stream of argon for 3 min through the solution and the experiment was performed under an argon atmosphere. The potentials were measured in a freshly prepared solution of (n Bu4N)[BF4] (0.1 M) in acetonitrile using ferrocene (Fe(η^5-C5H5)2) (E1/2 = +0.72 V vs. NHE) as an internal standard and are quoted relative to the normal hydrogen electrode (NHE).
# The electrochemical behavior of all complexes and the precursor Cp2WCl2 was studied by cyclic voltammetry with a scan rate of 200 mV/s, from −0.5 to +1.2 or +1.5 V. Measurements were performed in triplicate. Due to low water solubility of compounds 1–10 acetonitrile (MeCN) was utilized in order to reach the 2 mM concentration.
# [7] = test system: CH1/PA-1 (ovarian teratocarcinoma) cells; assay: MTT cytotoxicity assay, CH1/PA-1 monolayer; type: cell-based, human; settings: exposure time 96 h, mean ± SD
# Procedure: as §1, §2
# [8] = Solubility in PBS (1% DMSO); type: physicochemical
# Procedure: Stock solutions in DMSO of compounds 1–10 were utilized to determine the solubility in PBS by adding 1 vol% of the stock solution to a suitable amount of PBS. […] UV/Vis data were recorded on a Perkin Elmer Lambda 650 UV/Vis Spectrophotometer with a Peltier element for temperature control.
# [9] = test system: SW480 (colon carcinoma) cells; assay: MTT cytotoxicity assay, SW480 monolayer; type: cell-based, human; settings: for activity in SW480: 96 h; for IC50: exposure time 96 h, mean ± SD
# Procedure: as §1, §2
# [10] = test system: HCT116, HT29 and MCF-7 cell lines; assay: ROS detection (DCFH-DA assay); type: cell-based, human; settings: 2, 20, 100 and 200 µM, 2 h
# Procedure: Reactive oxygen species (ROS) generation was measured by means of the DCFH-DA assay. […] On the following day, cells were washed with 200 µL Hanks’ balanced salt solution (HBSS, Sigma-Aldrich, containing 1% FBS) and stained with 100 µL of 25 µM DCFH-DA (2′,7′-dichlorofluorescein diacetate, Sigma-Aldrich) in HBSS (containing 1% FBS) for 45 min at 37 °C in the dark. After the incubation period, cells were washed with 200 µL HBSS (1% FBS) and loaded with compounds at concentrations of 2 µM, 20 µM, 100 µM and 200 µM in 200 µL phenol-red-free MEM (1% FBS) in triplicates. As positive controls, cells were treated with 200 µM and 400 µM tert-butylhydroperoxide (Sigma-Aldrich). Wells containing only phenol-red-free medium with 1% FBS were used as blanks, and non-drug treated, cell containing wells as reference values. Fluorescence (excitation: 485/20 nm, emission: 516/20 nm) was recorded in 10 min intervals with the Synergy HT reader (BioTek) over 2 h.
# [11] = test system: MCF-7 cells; assay: Annexin V-FITC/PI apoptosis assay, MCF-7; settings: MCF-7, 24 h, 200 µM
# [12] = test system: HCT116 cells; assay: Annexin V-FITC/PI apoptosis assay, HCT116; type: cell-based, human; settings: HCT116, 24 h, 200 µM
# [13] = test system: HCT116 multicellular tumor spheroids; assay: Resazurin assay, HCT116 3D spheroids; type: cell-based, human; settings: 96 h, spheroids
# Procedure: as §1
# (§3) For growing multicellular tumor spheroids, 400 HCT116, 400 HT29 or 800 MCF-7 cells per well were plated into round-bottom ultra-low attachment 96-well plates (Corning, Glendale, AZ, USA) in the media described above and incubated at 37 °C for 96 h. Spheroids were treated with 10 µM of the two most cytotoxic compounds 3 and 4 for another 96 h. The diameters of the spheroids were measured with Cell^F software under a CKX41 Olympus microscope before treatment and in constant daily intervals over the 96 h treatment period. For statistical analysis the t-test with Welsh’s correction was implemented in GraphPad Prism software (Version 6.01).
# (§4) For the resazurin assay in monolayer cultures, cells were seeded into 96-well microculture plates (CytoOne, tissue culture treated, Starlab, Hamburg, Germany) in densities of 2 × 10^3 HCT116, 2 × 10^3 HT29 and 4 × 10^3 MCF-7 cells per well (each in 100 µL). For tests in 3D cultures, spheroids were grown as described above. After 24 h (for monolayers) or 4 days (for spheroids) the test compounds in the appropriate medium were added in serial dilution to the plates to obtain a total volume of 200 µL/well. Wells without cells, containing medium and resazurin (Alfa Aesar, Thermo Fisher, Kandel, Germany) solution were used as blanks. After 96 h exposure 20 µL of the resazurin solution (440 µM) were added to each well, followed by a 4 h (2D) or 12 h (3D) incubation period. Resorufin fluorescence was quantified at 530 nm (and a reference wavelength of 620 nm) by using a microplate reader (Synergy HT, BioTek) with Gen5^TM 3.10 software (BioTek).
# [14] = test system: MCF-7 cells; assay: Resazurin assay, MCF-7 2D monolayer; type: cell-based, human; settings: 96 h
# Procedure: as §1, §4
# [15] = test system: HT29 cells; assay: Annexin V-FITC/PI apoptosis assay, HT29; settings: HT29, 24 h, 200 µM
# [16] = test system: HT29 cells; assay: Resazurin assay, HT29 2D monolayer; type: cell-based, human; settings: 96 h
# Procedure: as §1, §4
# [17] = test system: HT29 multicellular tumor spheroids; assay: Resazurin assay, HT29 3D spheroids; type: cell-based, human; settings: 96 h, spheroids
# Procedure: as §1, §3, §4
# [18] = test system: HCT116 cells; assay: Resazurin assay, HCT116 2D monolayer; type: cell-based, human; settings: 96 h
# Procedure: as §1, §4
# [19] = test system: MCF-7 multicellular tumor spheroids; assay: Resazurin assay, MCF-7 3D spheroids; type: cell-based, human; settings: 96 h, spheroids
# Procedure: as §1, §3, §4
smiles,measurement,setting,value
N.N.[Cl][Pt][Cl] [Cisplatin],IC50,[1],3.8 ± 1 µM
same,IC50,[2],2300 ± 200 nM
same,IC50,[3],73 ± 1 nM
same,IC50,[4],14 ± 1 µM
"Cc1occc(=O)c1[O-].F[P-](F)(F)(F)(F)F.[W+4].c1cc[cH-]c1.c1cc[cH-]c1 [Compound 1, Bis(η^5-cyclopentadienyl)[2-methyl-3-(oxo-κO)-4-(1H)-pyran-4-ato-κO]tungsten(IV) hexafluorophosphate]",activity in A549,[5],no activity was observed
same,IC50,[5],> 200 µM
same,E1/2,[6],1.037 V
same,IC50,[7],85 ± 41 µM
same,Solubility in PBS (1% DMSO),[8],0.23 mg/mL
same,activity in SW480,[9],no activity was observed
same,IC50,[9],> 200 µM
"Cc1occc(=O)c1[O-].[Cl-].[W+4].c1cc[cH-]c1.c1cc[cH-]c1 [Compound 1A, Bis(η^5-cyclopentadienyl)[2-methyl-3-(oxo-κO)-4-(1H)-pyran-4-ato-κO]tungsten(IV) chloride]",activity in A549,[5],no activity was observed
same,IC50,[5],> 200 µM
same,intracellular ROS levels,[10],Pronounced elevation of ROS levels
same,early apoptotic cells [%] AV+ / PI-,[11],1.1 ± 0.6%
same,late apoptotic cells [%] AV+ / PI+,[11],3.2 ± 1.3%
same,necrotic cells [%] AV- / PI+,[11],2.3 ± 0.5%
same,viable cells [%] AV- / PI-,[11],94.3 ± 2.3%
same,∑apoptotic cells [%],[11]; sum of early and late,4.3%
same,early apoptotic cells [%] AV+ / PI-,[12],5.6 ± 2.1%
same,late apoptotic cells [%] AV+ / PI+,[12],16.1 ± 4.6%
same,necrotic cells [%] AV- / PI+,[12],3.8 ± 2.1%
same,viable cells [%] AV- / PI-,[12],74.5 ± 7.0%
same,∑apoptotic cells [%],[12]; sum of early and late,21.7%
same,IC50,[13],> 200 µM
same,IC50,[14],> 200 µM
same,early apoptotic cells [%] AV+ / PI-,[15],3.5 ± 2.5%
same,late apoptotic cells [%] AV+ / PI+,[15],4.3 ± 0.9%
same,necrotic cells [%] AV- / PI+,[15],4.4 ± 4.8%
same,viable cells [%] AV- / PI-,[15],87.8 ± 4.0%
same,∑apoptotic cells [%],[15]; sum of early and late,7.8%
same,IC50,[16],> 200 µM
same,IC50,[7],147 ± 18 µM
same,Solubility in PBS (1% DMSO),[8],5.00 mg/mL
same,activity in SW480,[9],no activity was observed
same,IC50,[9],> 200 µM
same,IC50,[17],> 200 µM
same,IC50,[18],> 200 µM
same,IC50,[19],> 200 µM
"[Cl-].[Cl-].[Mo+4].c1cc[cH-]c1.c1cc[cH-]c1 [Cp2MoCl2, Molybdenocene dichloride]",IC50,[1],> 200 µM
same,IC50,[2],> 200000 nM
same,IC50,[3],> 200000 nM
